In this test the target is GLP-1 Receptor (Homo sapiens, UniProt P43220). The experiment in a line: GLP-1R agonist cAMP stimulation assay (HEK293/GLP1R/CRE-LUC cells, cAMP dynamic 2 Kit). In kind it is cell-based. The following applies: HEK293/CRE-Luc cell line stably expressing the GLP-1 Receptor, 30 min at 37° C. The essentials:
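HEK293 cells stably expressing human GLP-1R with CRE-luciferase, 1000 cells/well in DPBS with 0.5 mM IBMX and 0.1% BSA, treated with compound in 1/2-log serial dilution for 30 min at 37 °C. cAMP then detected by HTRF (cAMP-d2 plus anti-cAMP cryptate), 1 h at room temperature in the dark.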

Molecules are shown by their SMILES.

In general, EC50 refers to the concentration at which the effect is half-maximal. The low end stands for a more potent agent, the high end for a less potent agent.

Chain of GLP-1 Receptor (P43220 24-463, species assumed): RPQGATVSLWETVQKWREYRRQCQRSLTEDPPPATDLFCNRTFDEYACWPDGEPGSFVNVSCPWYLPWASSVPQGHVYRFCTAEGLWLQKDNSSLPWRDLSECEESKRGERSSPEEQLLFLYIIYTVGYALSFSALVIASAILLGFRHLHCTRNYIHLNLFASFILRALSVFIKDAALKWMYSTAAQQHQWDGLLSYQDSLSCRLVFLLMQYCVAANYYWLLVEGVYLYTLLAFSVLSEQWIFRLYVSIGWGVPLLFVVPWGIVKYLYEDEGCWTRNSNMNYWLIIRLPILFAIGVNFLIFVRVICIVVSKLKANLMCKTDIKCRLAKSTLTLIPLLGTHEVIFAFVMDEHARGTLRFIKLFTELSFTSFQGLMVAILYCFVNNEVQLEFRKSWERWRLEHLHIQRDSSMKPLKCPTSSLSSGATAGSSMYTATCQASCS

The compound `FC(F)(F)c1nnc(-c2cnc3c(c2)nc(CN2CCC(c4cccc5c4OC[C@@H](c4ccc(Cl)cc4)O5)CC2)n3C[C@@H]2CCO2)[nH]1` [Compound 408a, 4-[(2R)-2-(4-chlorophenyl)-2,3-dihydro-1,4-benzodioxin-5-yl]-1-[(3-{[(2S)-oxetan-2-yl]methyl}-6-[5-(trifluoromethyl)-4H-1,2,4-triazol-3-yl]-3H-imidazo[4,5-b]pyridin-2-yl)methyl]piperidine] yielded a concentration for a half-maximal effect (EC50) of 0.28 nM. Next, `CC1(c2ccc(Cl)cc2F)Oc2cccc(C3CCN(Cc4nc5cc(-c6noc(=O)[nH]6)ccc5n4C[C@@H]4CCO4)CC3)c2O1` (single isomer, unassigned) [Compound 239c]: 0.55 nM; `Fc1cc(Cl)ccc1COc1cccc(C2CCN(Cc3nc4cc(-c5ccn(C6CCCOC6)n5)ccc4n3C[C@@H]3CCO3)CC2)n1` (stereo partly drawn) [Compound 216a, 2-[(4-{6-[(4-chloro-2-fluorophenyl)methoxy]pyridin-2-yl}piperidin-1-yl)methyl]-5-[1-(oxan-3-yl)-1H-pyrazol-3-yl]-1-{[(2S)-oxetan-2-yl]methyl}-1H-1,3-benzodiazole]: 8.8 nM; `Fc1cc(Cl)ccc1COc1cccc(C2CCN(Cc3nc4cc(-c5nnc(C(F)(F)F)[nH]5)nnc4n3C[C@@H]3CCO3)CC2)n1` [Compound 486a, 2-[(4-chloro-2-fluorophenyl)methoxy]-6-{1-[(7-{[(2S)-oxetan-2-yl]methyl}-3-[5-(trifluoromethyl)-4H-1,2,4-triazol-3-yl]-7H-imidazo[4,5-c]pyridazin-6-yl)methyl]piperidin-4-yl}pyridine]: 0.038 nM.

Compound `Cn1ccc(-c2ccc3c(c2)nc(CN2CCC(c4cccc(OCc5ccc(Cl)cc5F)n4)CC2)n3C[C@@H]2CCO2)n1` [Compound 124a, 2-[(4-{6-[(4-chloro-2-fluorophenyl)methoxy]pyridin-2-yl}piperidin-1-yl)methyl]-5-(1-methyl-1H-pyrazol-3-yl)-1-{[(2S)-oxetan-2-yl]methyl}-1H-1,3-benzodiazole] came in with an EC50 of 0.78 nM. `CC1(c2ccc(Cl)cc2F)Oc2cccc(C3CCN(Cc4nc5cc(-c6nnc(C(F)(F)F)[nH]6)cnc5n4C[C@@H]4CCO4)CC3)c2O1` (single isomer, unassigned) [Compound 224b] returned a 50% effective concentration (EC50) of 1.7 nM. `CC1(c2ccc(Cl)cc2F)Oc2cccc(C3CCN(Cc4nc5cc(-c6noc(=O)[nH]6)c(F)cc5n4C[C@@H]4CCO4)CC3)c2O1` (stereo partly drawn) [Compound 222a, 3-[2-({4-[2-(4-chloro-2-fluorophenyl)-2-methyl-2H-1,3-benzodioxol-4-yl]piperidin-1-yl}methyl)-6-fluoro-1-{[(2S)-oxetan-2-yl]methyl}-1H-1,3-benzodiazol-5-yl]-4,5-dihydro-1,2,4-oxadiazol-5-one] gave an EC50 of 0.55 nM.

In turn, `Fc1cc(Cl)ccc1COc1cccc(N2CCN(Cc3nc4cc(-c5nnc(C(F)(F)F)[nH]5)nnc4n3C[C@@H]3CCO3)CC2)n1` [Compound 492a, 1-{6-[(4-chloro-2-fluorophenyl)methoxy]pyridin-2-yl}-4-[(7-{[(2S)-oxetan-2-yl]methyl}-3-[5-(trifluoromethyl)-4H-1,2,4-triazol-3-yl]-7H-imidazo[4,5-c]pyridazin-6-yl)methyl]piperazine] registered an EC50 of 0.084 nM. Next, `C[C@]1(c2ccc(Cl)cc2F)Oc2cccc(C3CCN(Cc4nc5cc(C(=O)O)nnc5n4C[C@@H]4CCO4)CC3)c2O1` [Compound 431a, 6-({4-[(2S)-2-(4-chloro-2-fluorophenyl)-2-methyl-2H-1,3-benzodioxol-4-yl]piperidin-1-yl}methyl)-7-{[(2S)-oxetan-2-yl]methyl}-7H-imidazo[4,5-c]pyridazine-3-carboxylic acid]: 0.11 nM. As for `Fc1cc(Cl)ccc1COc1cc(C2CCN(Cc3nc4cc(-c5nnc(C(F)(F)F)[nH]5)nnc4n3C[C@@H]3CCO3)CC2)ccc1F` [Compound 520a, 4-{3-[(4-chloro-2-fluorophenyl)methoxy]-4-fluorophenyl}-1-[(7-{[(2S)-oxetan-2-yl]methyl}-3-[5-(trifluoromethyl)-4H-1,2,4-triazol-3-yl]-7H-imidazo[4,5-c]pyridazin-6-yl)methyl]piperidine], the EC50 was determined as 0.34 nM. As for `Cc1nnc(-c2ccc3c(c2)nc(CN2CCC(c4cccc5c4OC(C)(c4ccc(Cl)cn4)O5)CC2)n3CC2(C#N)CC2)[nH]1` (stereo not shown) [Compound 414, 1-{[2-({4-[2-(5-chloropyridin-2-yl)-2-methyl-2H-1,3-benzodioxol-4-yl]piperidin-1-yl}methyl)-5-(5-methyl-4H-1,2,4-triazol-3-yl)-1H-1,3-benzodiazol-1-yl]methyl}cyclopropane-1-carbonitrile], the figure is 0.055 nM.

In the case of `COC(=O)Nc1ccc2c(c1)nc(CN1CCC(c3cccc(OCc4ccc(Cl)cc4F)n3)CC1)n2C[C@@H]1CCO1` [Compound 146a, methyl N-{2-[(4-{6-[(4-chloro-2-fluorophenyl)methoxy]pyridin-2-yl}piperidin-1-yl)methyl]-1-{[(2S)-oxetan-2-yl]methyl}-1H-1,3-benzodiazol-5-yl}carbamate], the 50% effective concentration (EC50) amounted to 0.49 nM.

As for `C[C@]1(c2ccc(Cl)cn2)Oc2cccc(C3CCN(Cc4nc5cc(-c6noc(=O)[nH]6)ncc5n4C[C@@H]4CCO4)CC3)c2O1` [Compound 430a, 3-[2-({4-[(2S)-2-(5-chloropyridin-2-yl)-2-methyl-2H-1,3-benzodioxol-4-yl]piperidin-1-yl}methyl)-3-{[(2S)-oxetan-2-yl]methyl}-3H-imidazo[4,5-c]pyridin-6-yl]-4,5-dihydro-1,2,4-oxadiazol-5-one], the EC50 is 0.04 nM.

On to `CO[C@H](C)Cn1c(CN2CCC(c3cccc4c3O[C@@](C)(c3ccc(Cl)cc3F)O4)CC2)nc2cc(-c3noc(=O)[nH]3)ncc21` [Compound 419a, 3-[2-({4-[(2S)-2-(4-chloro-2-fluorophenyl)-2-methyl-2H-1,3-benzodioxol-4-yl]piperidin-1-yl}methyl)-3-[(2R)-2-methoxypropyl]-3H-imidazo[4,5-c]pyridin-6-yl]-4,5-dihydro-1,2,4-oxadiazol-5-one], for which the EC50 came out at 0.072 nM. `O=C(Nc1ccc2c(c1)nc(CN1CCC(c3cccc(OCc4ccc(Cl)cc4F)n3)CC1)n2C[C@@H]1CCO1)C1Cc2ccncc2C1` (stereo partly drawn) [Compound 180a, N-{2-[(4-{6-[(4-chloro-2-fluorophenyl)methoxy]pyridin-2-yl}piperidin-1-yl)methyl]-1-{[(2S)-oxetan-2-yl]methyl}-1H-1,3-benzodiazol-5-yl}-5H,6H,7H-cyclopenta[c]pyridine-6-carboxamide] had a concentration giving a half-maximal response (EC50) of 6 nM. `Fc1cc(Cl)ccc1C1COc2cccc(C3CCN(Cc4nc5cc(-c6nnc(C(F)(F)F)[nH]6)nnc5n4C[C@@H]4CCO4)CC3)c2O1` (stereo partly drawn) [Compound 465a, 4-[3-(4-chloro-2-fluorophenyl)-2,3-dihydro-1,4-benzodioxin-5-yl]-1-[(7-{[(2S)-oxetan-2-yl]methyl}-3-[5-(trifluoromethyl)-4H-1,2,4-triazol-3-yl]-7H-imidazo[4,5-c]pyridazin-6-yl)methyl]piperidine]: the EC50 was determined as 0.3 nM. Take `COCCOc1ccc(C(=O)Nc2ccc3c(c2)nc(CN2CCC(c4cccc(OCc5ccc(Cl)cc5F)n4)CC2)n3C[C@@H]2CCO2)cn1` [Compound 177a, N-{2-[(4-{6-[(4-chloro-2-fluorophenyl)methoxy]pyridin-2-yl}piperidin-1-yl)methyl]-1-{[(2S)-oxetan-2-yl]methyl}-1H-1,3-benzodiazol-5-yl}-6-(2-methoxyethoxy)pyridine-3-carboxamide]: the concentration giving a half-maximal response (EC50) amounted to 5.9 nM. Next, `Fc1cc(C2CC2)ccc1COc1cccc(C2CCN(Cc3nc4cc(-c5nnc(C(F)(F)F)[nH]5)ncc4n3C[C@@H]3CCO3)CC2)n1` [Compound 498a, 2-[(4-cyclopropyl-2-fluorophenyl)methoxy]-6-{1-[(3-{[(2S)-oxetan-2-yl]methyl}-6-[5-(trifluoromethyl)-4H-1,2,4-triazol-3-yl]-3H-imidazo[4,5-c]pyridin-2-yl)methyl]piperidin-4-yl}pyridine]: 0.099 nM; `C[C@]1(c2ccc(Cl)cn2)Oc2cccc(C3CCN(Cc4nc5cc(C(=O)O)nnc5n4C[C@@H]4CCO4)CC3)c2O1` [Compound 464a, 6-({4-[(2S)-2-(5-chloropyridin-2-yl)-2-methyl-2H-1,3-benzodioxol-4-yl]piperidin-1-yl}methyl)-7-{[(2S)-oxetan-2-yl]methyl}-7H-imidazo[4,5-c]pyridazine-3-carboxylic acid]: 0.76 nM; `N#Cc1ccc(COc2cccc(C3CCN(Cc4nc5cc(-c6nnc(C(F)(F)F)[nH]6)cnc5n4C[C@@H]4CCO4)CC3)n2)c(F)c1` [Compound 325a, 3-fluoro-4-{[(6-{1-[(3-{[(2S)-oxetan-2-yl]methyl}-6-[5-(trifluoromethyl)-4H-1,2,4-triazol-3-yl]-3H-imidazo[4,5-b]pyridin-2-yl)methyl]piperidin-4-yl}pyridin-2-yl)oxy]methyl}benzonitrile]: 0.012 nM. For `CC1(C)CCC(C(=O)Nc2ccc3c(c2)nc(CN2CCC(c4cccc(OCc5ccc(Cl)cc5F)n4)CC2)n3C[C@@H]2CCO2)CO1` (stereo partly drawn) [Compound 192a, N-{2-[(4-{6-[(4-chloro-2-fluorophenyl)methoxy]pyridin-2-yl}piperidin-1-yl)methyl]-1-{[(2S)-oxetan-2-yl]methyl}-1H-1,3-benzodiazol-5-yl}-6,6-dimethyloxane-3-carboxamide], the EC50 was found to be 6.2 nM. Next, `O=C(O)COc1ccc2c(c1)nc(CN1CCC(c3cccc(OCc4ccc(Cl)cc4F)n3)CC1)n2C[C@@H]1CCO1` [Compound 109a, (S)-2-((2-((4-(6-((4-chloro-2-fluorobenzyl)oxy)pyridin-2-yl)piperidin-1-yl)methyl)-1-(oxetan-2-ylmethyl)-1H-benzo[d]imidazol-5-yl)oxy)acetic acid]: 13.2 nM.

(Values after patent publication US20230391760A1, “HETEROCYCLIC GLP-1 AGONISTS” (Gasherbrum Bio, Inc., priority 2020, published 2023).)
